# Several values for one entry are separate records, joined by “and”; a condition that tells them apart may be missing. Identical values can stand only once. Like-named read-outs stand apart in the source and are kept apart here.
# Columns and labels:
# [1] = Body weight change in Antitumor Test 3; type: in vivo; conditions: 18 mg/kg once i.v., body weight on day of initiation = 1
# From the text: Human gastric cancer 4-1ST was collected from subcutaneous sites of nude mice, and the tumors were finely cut into blocks each measuring about 3 mm on one side. The tumor blocks thus obtained were transplanted subcutaneously into the dorsal side of nude mice using a trocar. On the 17th day after transplantation, when the average tumor volume reached about 100 to 200 mm^3, various drugs were intravenously administered through the caudal vein. […] Regarding the high amounts of administration of the administered compounds, the maximum tolerable dose (MTD dose) was employed in all cases. After the administration of the various drugs, the major axes (L) and the minor axes (W) of the tumors were measured over time using calipers, and the tumor volumes (L×W×W×0.5) were calculated. The test was carried out using four animals per group in all cases for a non-administered group and various drug-administered groups.
# After the administration, the body weights of the mice were measured over time.
# [2] = system: Human gastric cancer 4-1ST; assay: Antitumor Test 2, human gastric cancer 4-1ST-transplanted mouse; type: in vivo, BALB/cA-nu/nu mice; conditions: 18 mg/kg once i.v.
# From the text: (§1) Human gastric cancer 4-1ST was subcultured and maintained subcutaneously in BALB/cA-nu/nu mice (hereinafter, nude mice). Human gastric cancer 4-1ST was purchased from Central Institute for Experimental Animals.
# Human gastric cancer 4-1ST was collected from subcutaneous sites of nude mice, and the tumors were finely cut into blocks each measuring about 3 mm on one side. The tumor blocks thus obtained were transplanted subcutaneously into the dorsal side of nude mice using a trocar. On the 18th day after transplantation, when the average tumor volume reached about 100 to 200 mm^3, various drugs were intravenously administered through the caudal vein. […] As a control drug, 1-OHP was administered once at a dose of 18 mg/kg. […] Regarding Example 3 compound, the dose was less than or equal to the MTD dose; however, the dissolution limit of the compound was administered. After the administration of the various drugs, the major axes (L) and the minor axes (W) of the tumors were measured over time using calipers, and the tumor volumes (L×W×W×0.5) were calculated. The test was carried out using four animals per group in all cases for a non-administered group and various drug-administered groups. For a period starting from the initiation of administration to the 21st day after administration, the T/C (%) values of the various drug-administered groups are presented in Table 4.
# [3] = system: Human gastric cancer 4-1ST; assay: Antitumor Test 3, human gastric cancer 4-1ST-transplanted mouse; type: in vivo, BALB/cA-nu/nu mice
# From the text: as §1
# Human gastric cancer 4-1ST was collected from subcutaneous sites of nude mice, and the tumors were finely cut into blocks each measuring about 3 mm on one side. The tumor blocks thus obtained were transplanted subcutaneously into the dorsal side of nude mice using a trocar. On the 17th day after transplantation, when the average tumor volume reached about 100 to 200 mm^3, various drugs were intravenously administered through the caudal vein. […] As a control drug, 1-OHP or cisplatin (CDDP) was administered once at a dose of 18 mg/kg or 10 mg/kg. Regarding the high amounts of administration of the administered compounds, the maximum tolerable dose (MTD dose) was employed in all cases. After the administration of the various drugs, the major axes (L) and the minor axes (W) of the tumors were measured over time using calipers, and the tumor volumes (L×W×W×0.5) were calculated. The test was carried out using four animals per group in all cases for a non-administered group and various drug-administered groups. For a period starting from the initiation of administration to the 21st day after administration, the T/C (%) values of the various drug-administered groups are presented in Table 5.
# [4] = Maximum tolerable dose (MTD dose) in the antitumor tests; type: in vivo, BALB/cA-nu/nu mice; conditions: administered once intravenously, nude mice
# Protocol: Human gastric cancer 4-1ST was collected from the subcutaneous sites of nude mice, and the tumors were finely cut into blocks each measuring about 3 mm on one side. The tumor blocks thus obtained were transplanted subcutaneously into the dorsal side of nude mice using a trocar. On the 18th day after transplantation, when the average tumor volume reached about 100 to 200 mm^3, various drugs were intravenously administered through the caudal vein. […] As control drugs, 1-OHP was administered once at a dose of 20 mg/kg, and cisplatin was administered once at a dose of 10 mg/kg. […]
# (§2) Human gastric cancer 4-1ST was collected from subcutaneous sites of nude mice, and the tumors were finely cut into blocks each measuring about 3 mm on one side. […] After the administration of the various drugs, the major axes (L) and the minor axes (W) of the tumors were measured over time using calipers, and the tumor volumes (L×W×W×0.5) were calculated. […]
# as §2
# DAN-G cells = assay: Proliferation inhibition test, concentration/time dependency; type: cell-based, Human
# Protocol: Human pancreatic cancer cell line, DAN-G, was purchased from Asta Medica GmbH, and the cells were proliferated and subcultured in a recommended medium described in the pamphlet.
# For DAN-G cells that had been cultured and proliferated on a 10 cm dish for cell culture, the culture fluid was removed, and the cells were washed once with 5 ml of PBS (phosphate buffered physiological saline). Subsequently, 1 ml of 0.25% trypsin/0.05% EDTA (ethylenediaminetetraacetic acid)/PBS was added to the cells, and the mixture was left to stand for 5 minutes at 37° C. After it was confirmed that the cells had been detached from the dish, 9 ml of medium was added to the dish to disperse the cells, the dispersion was transferred into a 15 ml tube (Corning, Inc.), and the dispersion was centrifuged for 5 minutes at 1,000 rpm. A supernatant was removed, subsequently 10 ml of fresh medium was added to the tube, and the cells were suspended. A portion of the cells was stained with Trypan Blue, and the viable cell count was measured using a hemocytometer. The suspended cells were diluted with medium to a concentration of 2.6×10^4 cells/ml, and the cells were inoculated onto five sheets of 96 well plate (Plates A, B, C, D, and E) at a volume of 190 μl/well (5×10^3 cells/well).
# The cells were then cultured under the conditions of 37° C. and 5% CO2. Three replica wells were provided for each drug concentration.
# A test was performed under five different conditions by changing the drug addition time.
# For Plates A, B, C, D, and E that had been cultured for 72 hours as described above, the medium was removed, subsequently methanol was added to the plates, and the cells were thereby immobilized on the plates. After methanol was removed, a 0.05% Methylene Blue solution was added to the plate, and the cells were stained for 30 minutes. Methylene Blue was removed, any excess stain solution was washed with water, subsequently 3% hydrochloric acid was added to the plate at a volume of 200 μl/well, and thus Methylene Blue was extracted. The plates were left to stand for 2 hours or longer, and the absorbance at 660 nm was measured using a microplate reader (BENCHMARK PLUS, manufactured by Bio-Rad Laboratories, Inc.). Regarding the measured values, the average value of three replicas of a well for each drug concentration was taken. The proliferation inhibition ratio GI(x) % at a drug concentration x was calculated by the following formula from the absorbance values thus measured. GI(x)%=(1−(Ax−B)/(A0−B))×100
# [5] = system: Human gastric cancer 4-1ST; assay: Antitumor Test 1, human gastric cancer 4-1ST-transplanted mouse; type: in vivo, BALB/cA-nu/nu mice
# From the text: as §1
# Human gastric cancer 4-1ST was collected from the subcutaneous sites of nude mice, and the tumors were finely cut into blocks each measuring about 3 mm on one side. The tumor blocks thus obtained were transplanted subcutaneously into the dorsal side of nude mice using a trocar. On the 18th day after transplantation, when the average tumor volume reached about 100 to 200 mm^3, various drugs were intravenously administered through the caudal vein. […] As control drugs, 1-OHP was administered once at a dose of 20 mg/kg, and cisplatin was administered once at a dose of 10 mg/kg. Regarding the amounts of administration of 1-OHP and cisplatin, and the high amounts of administration of the various Example compounds, the maximum tolerable dose (MTD dose) was employed in all cases.
# After the administration of the various drugs, the major axes (L) and the minor axes (W) of the tumors were measured over time using calipers, and the tumor volumes (L×W×W×0.5) were calculated. The test was carried out using four animals per group in all cases for a non-administered group and various drug-administered groups. For a period starting from the initiation of administration to the 20th day after administration, the relative tumor volume (T/C (%)) of each of the drug-administered groups was calculated by the following formula, based on the relative tumor volume of the non-administered group as 100, as an index of the antitumor effect. T/C (%)=Relative tumor volume of administered group/relative tumor volume of non-administered group×100 Formula: […]
smiles,measurement,setting,value
"O=C1[O][Pt]2([NH][C@@H]3CCCC[C@H]3[NH]2)[O]C1=O [l-OHP, Oxaliplatin]",Relative body weight on days after administration,[1]; day 0,1.00
same,Relative body weight on days after administration,[1]; day 4,0.78
same,Relative body weight on days after administration,[1]; day 7,0.83
same,Relative body weight on days after administration,[1]; day 11,0.93
same,Relative body weight on days after administration,[1]; day 14,1.03
same,Relative body weight on days after administration,[1]; day 18,1.09
same,Relative body weight on days after administration,[1]; day 21,1.05
same,T/C (%) on days after each administration,[2]; day 0,100%
same,T/C (%) on days after each administration,[2]; day 3,100%
same,T/C (%) on days after each administration,[2]; day 7,65%
same,T/C (%) on days after each administration,[2]; day 10,58%
same,T/C (%) on days after each administration,[2]; day 14,57%
same,T/C (%) on days after each administration,[2]; day 17,61%
same,T/C (%) on days after each administration,[2]; day 21,60%
same,T/C (%) on days after each administration,"[3]; 18 mg/kg once i.v., day 0",100%
same,T/C (%) on days after each administration,"[3]; 18 mg/kg once i.v., day 4",84%
same,T/C (%) on days after each administration,"[3]; 18 mg/kg once i.v., day 7",52%
same,T/C (%) on days after each administration,"[3]; 18 mg/kg once i.v., day 11",50%
same,T/C (%) on days after each administration,"[3]; 18 mg/kg once i.v., day 14",50%
same,T/C (%) on days after each administration,"[3]; 18 mg/kg once i.v., day 18",60%
same,T/C (%) on days after each administration,"[3]; 18 mg/kg once i.v., day 21",57%
same,Maximum tolerable dose (MTD dose),[4]; listed as 1-OHP,20 mg/kg and 18 mg/kg
same,IC50,"DAN-G cells; drug exposure 6 hours, 72 hours total culture, concentration in terms of DACH-platin, read-out: IC50, 6 hours",9000 nM
same,IC50,"DAN-G cells; drug exposure 24 hours, 72 hours total culture, concentration in terms of DACH-platin, read-out: IC50, 24 hours",1800 nM
same,IC50,"DAN-G cells; drug exposure 48 hours, 72 hours total culture, concentration in terms of DACH-platin, read-out: IC50, 48 hours",900 nM
same,IC50,"DAN-G cells; drug exposure 72 hours, concentration in terms of DACH-platin, read-out: IC50, 72 hours",900 nM
same,IC50 (6 hours)/IC50 (72 hours),DAN-G cells; ratio of IC50 values,10.0
same,IC50,"DAN-G cells; read-out: IC50, 2 hour, drug exposure 2 hours, 72 hours total culture, concentration in terms of DACH-platin",44100 nM
same,T/C (%) on days after each administration,"[5]; 20 mg/kg once i.v., day 0",100%
same,T/C (%) on days after each administration,"[5]; 20 mg/kg once i.v., day 3",96%
same,T/C (%) on days after each administration,"[5]; 20 mg/kg once i.v., day 6",53%
same,T/C (%) on days after each administration,"[5]; 20 mg/kg once i.v., day 9",46%
same,T/C (%) on days after each administration,"[5]; 20 mg/kg once i.v., day 13",46%
same,T/C (%) on days after each administration,"[5]; 20 mg/kg once i.v., day 16",51%
same,T/C (%) on days after each administration,"[5]; 20 mg/kg once i.v., day 20",50%
"N.N.[Cl][Pt][Cl] [Cisplatin, cisplatin]",T/C (%) on days after each administration,"[3]; 10 mg/kg once i.v., day 0",100%
same,T/C (%) on days after each administration,"[3]; 10 mg/kg once i.v., day 4",77%
same,T/C (%) on days after each administration,"[3]; 10 mg/kg once i.v., day 7",43%
same,T/C (%) on days after each administration,"[3]; 10 mg/kg once i.v., day 11",32%
same,T/C (%) on days after each administration,"[3]; 10 mg/kg once i.v., day 14",36%
same,T/C (%) on days after each administration,"[3]; 10 mg/kg once i.v., day 18",37%
same,T/C (%) on days after each administration,"[3]; 10 mg/kg once i.v., day 21",42%
same,Maximum tolerable dose (MTD dose),[4],10 mg/kg
same,T/C (%) on days after each administration,"[5]; 10 mg/kg once i.v., day 0",100%
same,T/C (%) on days after each administration,"[5]; 10 mg/kg once i.v., day 3",91%
same,T/C (%) on days after each administration,"[5]; 10 mg/kg once i.v., day 6",49%
same,T/C (%) on days after each administration,"[5]; 10 mg/kg once i.v., day 9",32%
same,T/C (%) on days after each administration,"[5]; 10 mg/kg once i.v., day 13",31%
same,T/C (%) on days after each administration,"[5]; 10 mg/kg once i.v., day 16",35%
same,T/C (%) on days after each administration,"[5]; 10 mg/kg once i.v., day 20",36%

# From US10946028B2, “Polymer conjugate of sulfoxide derivative-coordinated platinum(II) complex” (priority 2015, dated 2021)
